This note sets out measurements from US20260053834A1, “COVALENT MODIFIERS OF AKT1 AND USES THEREOF” (Terremoto Biosciences, Inc., priority 2023, published 2026).

pIC50: −log10 of the molar value.

Experiment [1] has as its target T1, AKT1 WT (Homo sapiens, UniProt P31749).
T1 construct: expressed in transfected cells; host or cells: HEK293
The experiment is described as follows: Live cell target engagement by NanoBRET competitive probe displacement, AKT1 WT. It counts as binding. As to conditions: transfected HEK293 cells, 2 h at 37° C., read-out: AKT1 WT IC50: GeoMean IC50. A general note: BRET reads energy transfer from a luciferase to a nearby fluorophore.

Experiment [2] has as its system LAPC4 prostate cancer cells, which express the AKT1 E17K allele. The experiment is described as follows: Antiproliferative effects in LAPC4 cells (CellTiter Glo, 72 h). The following applies: Homo sapiens, LAPC4, 72 h, read-out: LAPC4 proliferation IC50: GeoMean IC50. It counts as cell-based. An outline of the steps: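 IC50 values come from Hill-equation fitting of luminescence (cellular ATP) after 72 h compound exposure. Treated wells held 1,000 cells each, with compound delivered as DMSO dilutions. Culture medium was IMDM plus 12% FBS.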
A general note: Cellular ATP, detected with luciferase, serves as a proxy for viable cell number.

In experiment [3] the target is T2, AKT2 (Homo sapiens, UniProt P31751).
T2 construct: expressed in transfected cells; host or cells: HEK293
T2 sequence (P31751 whole entry): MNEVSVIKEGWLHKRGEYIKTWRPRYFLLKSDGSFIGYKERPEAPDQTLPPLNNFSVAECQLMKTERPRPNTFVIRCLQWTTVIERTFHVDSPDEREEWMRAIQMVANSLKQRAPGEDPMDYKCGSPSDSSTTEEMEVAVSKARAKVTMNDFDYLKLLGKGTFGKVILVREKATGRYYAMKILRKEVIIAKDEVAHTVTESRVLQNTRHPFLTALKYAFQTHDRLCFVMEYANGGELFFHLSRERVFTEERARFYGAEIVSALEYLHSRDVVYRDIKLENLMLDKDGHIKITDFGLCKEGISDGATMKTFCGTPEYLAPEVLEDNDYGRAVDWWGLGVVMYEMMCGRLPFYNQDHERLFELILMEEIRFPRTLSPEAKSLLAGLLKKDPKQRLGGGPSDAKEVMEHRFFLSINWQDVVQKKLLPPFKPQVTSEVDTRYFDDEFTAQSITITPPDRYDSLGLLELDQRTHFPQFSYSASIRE
The experiment is described as follows: Live cell target engagement by NanoBRET competitive probe displacement, AKT2. It counts as binding. The following applies: transfected HEK293 cells, 2 h at 37° C., read-out: AKT2 IC50: GeoMean IC50.

For experiment [4], the target named is T3, AKT1 E17K (Homo sapiens, UniProt P31749, E17K).
T3 construct: expressed in transfected cells; host or cells: HEK293
T3 sequence (P31749 whole entry E17K): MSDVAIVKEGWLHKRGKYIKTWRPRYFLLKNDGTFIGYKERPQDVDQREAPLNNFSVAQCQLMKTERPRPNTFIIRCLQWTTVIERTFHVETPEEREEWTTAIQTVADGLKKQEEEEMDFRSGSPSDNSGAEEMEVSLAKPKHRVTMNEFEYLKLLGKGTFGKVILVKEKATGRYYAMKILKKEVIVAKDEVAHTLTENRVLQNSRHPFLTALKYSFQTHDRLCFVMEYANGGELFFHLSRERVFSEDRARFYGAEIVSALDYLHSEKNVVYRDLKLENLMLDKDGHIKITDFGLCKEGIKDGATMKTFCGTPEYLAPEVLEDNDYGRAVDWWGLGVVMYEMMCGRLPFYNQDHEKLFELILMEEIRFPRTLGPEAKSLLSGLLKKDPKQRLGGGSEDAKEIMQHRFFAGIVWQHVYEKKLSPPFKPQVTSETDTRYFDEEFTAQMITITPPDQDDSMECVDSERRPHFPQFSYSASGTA
The experiment is described as follows: Live cell target engagement by NanoBRET competitive probe displacement, AKT1 E17K. The format is binding. The following applies: transfected HEK293 cells, 2 h at 37° C., read-out: AKT1 E17K IC50: GeoMean IC50.

T1 sequence (P31749 whole entry): as the sequence (P31749 whole entry E17K) above, with K17E counted along it

Consider `Nc1ncccc1-c1nc2ccc(-n3cc(C=O)cn3)nc2n1-c1ccc2c(c1)CC[C@@H]2NC(=O)c1ccc(O)c(C=O)c1` [Example 84, N-[(1S)-5-[2-(2-aminopyridin-3-yl)-5-(4-formylpyrazol-1-yl)imidazo[4,5-b]pyridin-3-yl]-2,3-dihydro-1H-inden-1-yl]-3-formyl-4-hydroxybenzamide], for which the pIC50 in experiment [1] was 5.70 to 7.00; in experiment [2], 5.70 to 7.00; in experiment [3] it was 5.70 to 7.00; in experiment [4], 7.00 to 8.00.

As for `CC1(NC(=O)c2ccc(O)c(C=O)c2)CCc2cc(-n3c(-c4cccnc4N)nc4ccc(-n5cccn5)nc43)ccc21` (stereo not drawn) [Example 219, N-(5-(2-(2-aminopyridin-3-yl)-5-(1H-pyrazol-1-yl)-3H-imidazo[4,5-b]pyridin-3-yl)-1-methyl-2,3-dihydro-1H-inden-1-yl)-3-formyl-4-hydroxybenzamide], the pIC50 in experiment [1] is 5.70 to 7.00; in experiment [2], not above 5.70; in experiment [3] it was 5.70 to 7.00; in experiment [4], not above 5.70.

For `CC(=O)Nc1ccc(C(=O)N[C@H]2CCc3cc(-n4c(-c5cccnc5N)nc5ccc(-c6ccccc6)nc54)ccc32)cc1C=O` [Example 14, N-[(1S)-5-[2-(2-aminopyridin-3-yl)-5-phenylimidazo[4,5-b]pyridin-3-yl]-2,3-dihydro-1H-inden-1-yl]-4-acetamido-3-formylbenzamide], the pIC50 in experiment [1] is more than 8.00; in experiment [2], more than 8.00; in experiment [3], 7.00 to 8.00; in experiment [4] it was more than 8.00.

As for `Nc1ncccc1-c1nc2ccc(-n3cccn3)nc2n1-c1ccc2c(c1)CC[C@@H]2NC(=O)c1cc(C=O)c(O)c2scnc12` [Example 242, (S)—N-(5-(2-(2-aminopyridin-3-yl)-5-(1H-pyrazol-1-yl)-3H-imidazo[4,5-b]pyridin-3-yl)-2,3-dihydro-1H-inden-1-yl)-6-formyl-7-hydroxybenzo[d]thiazole-4-carboxamide], the pIC50 in experiment [1] is 5.70 to 7.00; in experiment [2], 5.70 to 7.00; in experiment [3] it was not above 5.70; in experiment [4] it was 7.00 to 8.00.

Consider `Nc1ncccc1-c1nc2ccc(-n3cccn3)nc2n1-c1ccc2c(c1)CC[C@@H]2NC(=O)c1cc(C=O)c(O)c(C(F)(F)F)c1` [Example 100, N-[(1S)-5-[2-(2-aminopyridin-3-yl)-5-(pyrazol-1-yl)imidazo[4,5-b]pyridin-3-yl]-2,3-dihydro-1H-inden-1-yl]-3-formyl-4-hydroxy-5-(trifluoromethyl)benzamide], for which the pIC50 was 5.70 to 7.00 in experiment [1], 5.70 to 7.00 in experiment [2], 5.70 to 7.00 in experiment [3] and 7.00 to 8.00 in experiment [4].

For `CC(=O)Nc1ccc(C(=O)N[C@H]2CCc3cc(-n4c(-c5cccnc5N)nc5ccc(-n6cccn6)nc54)ccc32)cc1C=O` [Example 56, N-[(1S)-5-[2-(2-aminopyridin-3-yl)-5-(pyrazol-1-yl)imidazo[4,5-b]pyridin-3-yl]-2,3-dihydro-1H-inden-1-yl]-4-acetamido-3-formylbenzamide], the pIC50 in experiment [1] is 7.00 to 8.00; in experiment [2] it was 7.00 to 8.00; in experiment [3] it was 5.70 to 7.00; in experiment [4], more than 8.00.

For the molecule `COc1ccn(-c2ccc3nc(-c4cccnc4N)n(-c4ccc5c(c4)CC[C@@H]5NC(=O)c4ccc(O)c(C=O)c4)c3n2)n1` [Example 106, N-[(1S)-5-[2-(2-aminopyridin-3-yl)-5-(3-methoxypyrazol-1-yl)imidazo[4,5-b]pyridin-3-yl]-2,3-dihydro-1H-inden-1-yl]-3-formyl-4-hydroxybenzamide], the pIC50 was 7.00 to 8.00 in experiment [1], 7.00 to 8.00 in experiment [2], 5.70 to 7.00 in experiment [3] and 7.00 to 8.00 in experiment [4].

For the molecule `Cc1cc(-n2cccn2)nc2c1nc(-c1cccnc1N)n2-c1ccc2c(c1)CC[C@@H]2NC(=O)c1ccc(O)c(C=O)c1` [Example 131, (S)—N-(5-(2-(2-aminopyridin-3-yl)-7-methyl-5-(1H-pyrazol-1-yl)-3H-imidazo[4,5-b]pyridin-3-yl)-2,3-dihydro-1H-inden-1-yl)-3-formyl-4-hydroxybenzamide], the pIC50 in experiment [1], in experiment [2], in experiment [3] and in experiment [4] was 7.00 to 8.00 each time.

As for `Nc1ncccc1-c1nc2ccc(-n3nccn3)nc2n1-c1ccc2c(c1)CC[C@@H]2NC(=O)c1ccc(O)c(C=O)c1` [Example 91, N-[(1S)-5-[2-(2-aminopyridin-3-yl)-5-(1,2,3-triazol-2-yl)imidazo[4,5-b]pyridin-3-yl]-2,3-dihydro-1H-inden-1-yl]-3-formyl-4-hydroxybenzamide], the pIC50 is 7.00 to 8.00 in experiment [1], 7.00 to 8.00 in experiment [2], 5.70 to 7.00 in experiment [3] and 7.00 to 8.00 in experiment [4].

Consider `Nc1ncccc1-c1nc2ccc(-n3cc(CO)cn3)nc2n1-c1ccc2c(c1)CC[C@@H]2NC(=O)c1cc(C=O)c(O)cc1F` [Example 138, (S)—N-(5-(2-(2-aminopyridin-3-yl)-5-(4-(hydroxymethyl)-1H-pyrazol-1-yl)-3H-imidazo[4,5-b]pyridin-3-yl)-2,3-dihydro-1H-inden-1-yl)-2-fluoro-5-formyl-4-hydroxybenzamide], for which the pIC50 is 5.70 to 7.00 in experiment [1], 7.00 to 8.00 in experiment [2], 5.70 to 7.00 in experiment [3] and 7.00 to 8.00 in experiment [4].

For the molecule `Nc1ncccc1-c1nc2ccc(-c3ccccc3)nc2n1-c1ccc2c(c1)CC[C@@H]2Nc1nccc2c(C=O)c(O)ccc12` [Example 39, 1-{[(1S)-5-[2-(2-aminopyridin-3-yl)-5-phenylimidazo[4,5-b]pyridin-3-yl]-2,3-dihydro-1H-inden-1-yl]amino}-6-hydroxyisoquinoline-5-carbaldehyde], the pIC50 in experiment [1], in experiment [2], in experiment [3] and in experiment [4] was 5.70 to 7.00 each time.

In the case of `Nc1ncccc1-c1nc2ccc(-n3cccn3)nc2n1-c1ccc2c(c1)CC[C@@H]2NC(=O)c1cc(C=O)c(O)c(F)c1F` [Example 82, (S)—N-(5-(2-(2-aminopyridin-3-yl)-5-(1H-pyrazol-1-yl)-3H-imidazo[4,5-b]pyridin-3-yl)-2,3-dihydro-1H-inden-1-yl)-2,3-difluoro-5-formyl-4-hydroxybenzamide], the pIC50 in experiment [1], in experiment [2], in experiment [3] and in experiment [4] was 7.00 to 8.00 in each case.

Turning to `CS(=O)(=O)Nc1cc(F)c(C(=O)N[C@H]2CCc3cc(-n4c(-c5cccnc5N)nc5ccc(-n6cccn6)nc54)ccc32)cc1C=O` [Example 217, N-[(1S)-5-[2-(2-aminopyridin-3-yl)-5-(pyrazol-1-yl)imidazo[4,5-b]pyridin-3-yl]-2,3-dihydro-1H-inden-1-yl]-2-fluoro-5-formyl-4-methanesulfonamidobenzamide], the pIC50 in experiment [1], in experiment [2], in experiment [3] and in experiment [4] was not above 5.70 in each case.

Turning to `N#Cc1ccn(-c2ccc3nc(-c4cccnc4N)n(-c4ccc5c(c4)CC[C@@H]5NC(=O)c4ccc(O)c(C=O)c4)c3n2)n1` [Example 108, N-[(1S)-5-[2-(2-aminopyridin-3-yl)-5-(3-cyanopyrazol-1-yl)imidazo[4,5-b]pyridin-3-yl]-2,3-dihydro-1H-inden-1-yl]-3-formyl-4-hydroxybenzamide], the pIC50 in experiment [1] is 5.70 to 7.00; in experiment [2], 5.70 to 7.00; in experiment [3], not above 5.70; in experiment [4], 7.00 to 8.00.

Regarding `Nc1ncccc1-c1nc2ccc(Br)nc2n1-c1ccc2c(c1)CC[C@@H]2NC(=O)c1ccc(O)c(C=O)c1` [Example 37, (S)—N-(5-(2-(2-aminopyridin-3-yl)-5-bromo-3H-imidazo[4,5-b]pyridin-3-yl)-2,3-dihydro-1H-inden-1-yl)-3-formyl-4-hydroxybenzamide], the pIC50 in experiment [1] is 5.70 to 7.00; in experiment [2] it was 5.70 to 7.00; in experiment [3] it was not above 5.70; in experiment [4], 7.00 to 8.00.

As to `Nc1ncccc1-c1nc2ccc(-c3ccn(C4CC4)n3)nc2n1-c1ccc2c(c1)CC[C@@H]2NC(=O)c1cc(C=O)c(O)cc1F` [Example 240, N-[(1S)-5-[2-(2-aminopyridin-3-yl)-5-(1-cyclopropylpyrazol-3-yl)imidazo[4,5-b]pyridin-3-yl]-2,3-dihydro-1H-inden-1-yl]-2-fluoro-5-formyl-4-hydroxybenzamide], the pIC50 in experiment [1] is 7.00 to 8.00; in experiment [2], 7.00 to 8.00; in experiment [3] it was 5.70 to 7.00; in experiment [4] it was 7.00 to 8.00.

In the case of `Nc1ncccc1-c1nc2c(C(F)F)cc(-n3cccn3)nc2n1-c1ccc2c(c1)CC[C@@H]2NC(=O)c1ccc(O)c(C=O)c1` [Example 245, N-[(1S)-5-[2-(2-aminopyridin-3-yl)-7-(difluoromethyl)-5-(pyrazol-1-yl)imidazo[4,5-b]pyridin-3-yl]-2,3-dihydro-1H-inden-1-yl]-3-formyl-4-hydroxybenzamide], the pIC50 in experiment [1] is 7.00 to 8.00; in experiment [2], 7.00 to 8.00; in experiment [3], 5.70 to 7.00; in experiment [4], more than 8.00.

With `CN1CCN(c2cc(-n3cccn3)nc3c2nc(-c2cccnc2N)n3-c2ccc3c(c2)CC[C@@H]3NC(=O)c2ccc(O)c(C=O)c2)CC1` [Example 223, N-[(1S)-5-[2-(2-aminopyridin-3-yl)-7-(4-methylpiperazin-1-yl)-5-(pyrazol-1-yl)imidazo[4,5-b]pyridin-3-yl]-2,3-dihydro-1H-inden-1-yl]-3-formyl-4-hydroxybenzamide], the pIC50 in experiment [1] was 5.70 to 7.00; in experiment [2], 5.70 to 7.00; in experiment [3], 5.70 to 7.00; in experiment [4], 7.00 to 8.00.
